# Results published in US8258114B2, “Modulation of glucose-6-phosphatase translocase expression” (Isis Pharmaceuticals, Inc., priority 2004, dated 2012).
# Oligonucleotides are written 5' to 3', each unit as a sugar letter and its base; * is a phosphorothioate linkage, no mark a phosphodiester; rarer units and linkages stand in square brackets, end groups in braces. Plain capitals give the bases only. e = 2'-O-(2-methoxyethyl) (MOE); [5mC] = 5-methylcytosine; d = 2'-deoxy (DNA)
# Tested on: mouse glucose-6-phosphatase translocase mRNA
# Assay: Antisense inhibition of mouse glucose-6-phosphatase translocase mRNA in primary mouse hepatocytes, 50 nM (Table 5)
# Assay type: cell-based
# Details: 50 nM oligonucleotide, mRNA by real-time PCR, normalized with RIBOGREEN
# Experimental: Primary mouse hepatocytes were prepared from CD-1 mice purchased from Charles River Labs. Primary mouse hepatocytes were routinely cultured in Hepatocyte Attachment Media supplemented with 10% fetal bovine serum (Invitrogen Life Technologies, Carlsbad, Calif.), 250 nM dexamethasone, and 10 nM bovine insulin (Sigma-Aldrich, St. Louis, Mo.). Cells were seeded into 96-well plates (Falcon-Primaria #353872, BD Biosciences, Bedford, Mass.) at a density of approximately 4,000-6,000 cells/well for use in oligomeric compound transfection experiments.
# Quantitation of glucose 6-phosphatase translocase mRNA levels was accomplished by real-time quantitative PCR using the ABI PRISM™ 7600, 7700, or 7900 Sequence Detection System (PE-Applied Biosystems, Foster City, Calif.) according to manufacturer's instructions.
# Prior to quantitative PCR analysis, primer-probe sets specific to the target gene being measured were evaluated for their ability to be “multiplexed” with a GAPDH amplification reaction. After isolation the RNA is subjected to sequential reverse transcriptase (RT) reaction and real-time PCR, both of which are performed in the same well. RT and PCR reagents were obtained from Invitrogen Life Technologies (Carlsbad, Calif.). […] The RT reaction was carried out by incubation for 30 minutes at 48° C. Following a 10 minute incubation at 95° C. to activate the PLATINUM® Taq, 40 cycles of a two-step PCR protocol were carried out: 95° C. for 15 seconds (denaturation) followed by 60° C. for 1.5 minutes (annealing/extension).
# Gene target quantities obtained by RT, real-time PCR were normalized using either the expression level of GAPDH, a gene whose expression is constant, or by quantifying total RNA using RiboGreen™ (Molecular Probes, Inc. Eugene, Oreg.). GAPDH expression was quantified by RT, real-time PCR, by being run simultaneously with the target, multiplexing, or separately. Total RNA was quantified using RiboGreen™ RNA quantification reagent (Molecular Probes, Inc. Eugene, Oreg.).
# A series of oligomeric compounds was designed to target different regions of mouse glucose-6-phosphatase translocase, using published sequences cited in Table 1. All compounds in Table 5 are chimeric oligonucleotides (“gapmers”) 20 nucleotides in length, composed of a central “gap” region consisting of 10 2′-deoxynucleotides, which is flanked on both sides (5′ and 3′) by five-nucleotide “wings”. The wings are composed of 2′-O-(2-methoxyethyl) nucleotides, also known as 2′-MOE nucleotides. The internucleoside (backbone) linkages are phosphorothioate throughout the oligonucleotide. All cytidine residues are 5-methylcytidines. The compounds were analyzed for their effect on gene target mRNA levels by quantitative real-time PCR as described in other examples herein, using the following primer-probe set designed to hybridize to mouse glucose-6-phosphatase translocase: • forward primer: […] (SEQ ID NO: 66) • reverse primer: CCATCCCAGCCATCATGAG (SEQ ID NO: 67) and the PCR probe was: FAM-[…]-TAMRA (SEQ ID NO: 68) where FAM is the fluorescent reporter dye and TAMRA is the quencher dye. Mouse target gene quantities were normalized by quantifying total RNA using RIBOGREEN™.
# Data are from experiments in which primary mouse hepatocytes were treated with 50 nM of the antisense oligonucleotides of the present invention. A reduction in expression is expressed as percent inhibition in Table 5. If present, “N.D.” indicates “not determined”. The target regions to which these oligomeric compounds are inhibitory are herein referred to as “validated target segments.”
row,Sequence,% Inhib
1,CGCCATGGCCCTGTCTGACA (e[5mC]*eG*e[5mC]*e[5mC]*eA*dT*dG*dG*d[5mC]*d[5mC]*d[5mC]*dT*dG*dT*d[5mC]*eT*eG*eA*e[5mC]*eA; antisense) [ISIS 148969],24%
2,CGTCATCATTTTAAATAGAG (e[5mC]*eG*eT*e[5mC]*eA*dT*d[5mC]*dA*dT*dT*dT*dT*dA*dA*dA*eT*eA*eG*eA*eG; antisense) [ISIS 148994],10%
3,CTGATGGCGTAGGCTGCCGA (e[5mC]*eT*eG*eA*eT*dG*dG*d[5mC]*dG*dT*dA*dG*dG*d[5mC]*dT*eG*e[5mC]*e[5mC]*eG*eA; antisense) [ISIS 148950],0%
4,CTGCTGGCCCACTCCAGTAC (e[5mC]*eT*eG*e[5mC]*eT*dG*dG*d[5mC]*d[5mC]*d[5mC]*dA*d[5mC]*dT*d[5mC]*d[5mC]*eA*eG*eT*eA*e[5mC]; antisense) [ISIS 148940],61%
5,CTTGTCCAGAGCGATCTCAT (e[5mC]*eT*eT*eG*eT*d[5mC]*d[5mC]*dA*dG*dA*dG*d[5mC]*dG*dA*dT*e[5mC]*eT*e[5mC]*eA*eT; antisense) [ISIS 148945],35%
6,CTTTCCGTGTCCTGCCAGTA (e[5mC]*eT*eT*eT*e[5mC]*d[5mC]*dG*dT*dG*dT*d[5mC]*d[5mC]*dT*dG*d[5mC]*e[5mC]*eA*eG*eT*eA; antisense) [ISIS 148987],45%
7,GAAGGGTATAGGAGACACCC (eG*eA*eA*eG*eG*dG*dT*dA*dT*dA*dG*dG*dA*dG*dA*e[5mC]*eA*e[5mC]*e[5mC]*e[5mC]; antisense) [ISIS 148997],57%
8,GACTGCTCCTGCTTGCAGCT (eG*eA*e[5mC]*eT*eG*d[5mC]*dT*d[5mC]*d[5mC]*dT*dG*d[5mC]*dT*dT*dG*e[5mC]*eA*eG*e[5mC]*eT; antisense) [ISIS 148938],50%
9,GAGCCCCAAATCGTCCTTGT (eG*eA*eG*e[5mC]*e[5mC]*d[5mC]*d[5mC]*dA*dA*dA*dT*d[5mC]*dG*dT*d[5mC]*e[5mC]*eT*eT*eG*eT; antisense) [ISIS 148947],37%
10,GAGCTACCCACAAGGGCGGA (eG*eA*eG*e[5mC]*eT*dA*d[5mC]*d[5mC]*d[5mC]*dA*d[5mC]*dA*dA*dG*dG*eG*e[5mC]*eG*eG*eA; antisense) [ISIS 148965],16%
11,GAGGTTCCACACAAGTTGGG (eG*eA*eG*eG*eT*dT*d[5mC]*d[5mC]*dA*d[5mC]*dA*d[5mC]*dA*dA*dG*eT*eT*eG*eG*eG; antisense) [ISIS 148978],34%
12,GCAGCCGCTCTCCTTTCCGT (eG*e[5mC]*eA*eG*e[5mC]*d[5mC]*dG*d[5mC]*dT*d[5mC]*dT*d[5mC]*d[5mC]*dT*dT*eT*e[5mC]*e[5mC]*eG*eT; antisense) [ISIS 148988],73%
13,GCCAGTGTGCTGCGCCAGCT (eG*e[5mC]*e[5mC]*eA*eG*dT*dG*dT*dG*d[5mC]*dT*dG*d[5mC]*dG*d[5mC]*e[5mC]*eA*eG*e[5mC]*eT; antisense) [ISIS 148957],57%
14,GCCCCAGTCTGTACAGCAAG (eG*e[5mC]*e[5mC]*e[5mC]*e[5mC]*dA*dG*dT*d[5mC]*dT*dG*dT*dA*d[5mC]*dA*eG*e[5mC]*eA*eA*eG; antisense) [ISIS 148963],55%
15,GCCGCAAATATGACAGTGCG (eG*e[5mC]*e[5mC]*eG*e[5mC]*dA*dA*dA*dT*dA*dT*dG*dA*d[5mC]*dA*eG*eT*eG*e[5mC]*eG; antisense) [ISIS 148942],17%
16,GCTCACAAACTTGCTGATGG (eG*e[5mC]*eT*e[5mC]*eA*d[5mC]*dA*dA*dA*d[5mC]*dT*dT*dG*d[5mC]*dT*eG*eA*eT*eG*eG; antisense) [ISIS 148951],57%
17,GCTGAAGGGTAAGCCAGCCA (eG*e[5mC]*eT*eG*eA*dA*dG*dG*dG*dT*dA*dA*dG*d[5mC]*d[5mC]*eA*eG*e[5mC]*e[5mC]*eA; antisense) [ISIS 148980],43%

row,Sequence,% Inhib
1,GCTTTATTCGATCTATACAA (eG*e[5mC]*eT*eT*eT*dA*dT*dT*d[5mC]*dG*dA*dT*d[5mC]*dT*dA*eT*eA*e[5mC]*eA*eA; antisense) [ISIS 149009],5%
2,GGATATTTCGAAGCAAGAAG (eG*eG*eA*eT*eA*dT*dT*dT*d[5mC]*dG*dA*dA*dG*d[5mC]*dA*eA*eG*eA*eA*eG; antisense) [ISIS 148983],43%
3,GGCACTGATGTAGGAGCTAC (eG*eG*e[5mC]*eA*e[5mC]*dT*dG*dA*dT*dG*dT*dA*dG*dG*dA*eG*e[5mC]*eT*eA*e[5mC]; antisense) [ISIS 148966],54%
4,GGCAGAAACCACAGGCCATT (eG*eG*e[5mC]*eA*eG*dA*dA*dA*d[5mC]*d[5mC]*dA*d[5mC]*dA*dG*dG*e[5mC]*e[5mC]*eA*eT*eT; antisense) [ISIS 149000],56%
5,GGCTGCTTGTGATGAGCCCC (eG*eG*e[5mC]*eT*eG*d[5mC]*dT*dT*dG*dT*dG*dA*dT*dG*dA*eG*e[5mC]*e[5mC]*e[5mC]*e[5mC]; antisense) [ISIS 148949],52%
6,GGGACCTCATTAGCCACTGG (eG*eG*eG*eA*e[5mC]*d[5mC]*dT*d[5mC]*dA*dT*dT*dA*dG*d[5mC]*d[5mC]*eA*e[5mC]*eT*eG*eG; antisense) [ISIS 148993],55%
7,GGGACTGAGGTATTGGCATC (eG*eG*eG*eA*e[5mC]*dT*dG*dA*dG*dG*dT*dA*dT*dT*dG*eG*e[5mC]*eA*eT*e[5mC]; antisense) [ISIS 149003],9%
8,GGGTACGGCAGAAACCACAG (eG*eG*eG*eT*eA*d[5mC]*dG*dG*d[5mC]*dA*dG*dA*dA*dA*d[5mC]*e[5mC]*eA*e[5mC]*eA*eG; antisense) [ISIS 149001],42%
9,GTGATGAGCCCCAAATCGTC (eG*eT*eG*eA*eT*dG*dA*dG*d[5mC]*d[5mC]*d[5mC]*d[5mC]*dA*dA*dA*eT*e[5mC]*eG*eT*e[5mC]; antisense) [ISIS 148948],52%
10,GTGGAGACACAGAAACGTAA (eG*eT*eG*eG*eA*dG*dA*d[5mC]*dA*d[5mC]*dA*dG*dA*dA*dA*e[5mC]*eG*eT*eA*eA; antisense) [ISIS 148992],51%
11,TACAGCAAGTCTTTACTCCG (eT*eA*e[5mC]*eA*eG*d[5mC]*dA*dA*dG*dT*d[5mC]*dT*dT*dT*dA*e[5mC]*eT*e[5mC]*e[5mC]*eG; antisense) [ISIS 148962],47%
12,TACTCGGAAGAGATACGTGG (eT*eA*e[5mC]*eT*e[5mC]*dG*dG*dA*dA*dG*dA*dG*dA*dT*dA*e[5mC]*eG*eT*eG*eG; antisense) [ISIS 148974],8%
13,TATAGGAGACACCCTGAATT (eT*eA*eT*eA*eG*dG*dA*dG*dA*d[5mC]*dA*d[5mC]*d[5mC]*d[5mC]*dT*eG*eA*eA*eT*eT; antisense) [ISIS 148996],−3%
14,TATTGGCATCAATTTTGCCC (eT*eA*eT*eT*eG*dG*d[5mC]*dA*dT*d[5mC]*dA*dA*dT*dT*dT*eT*eG*e[5mC]*e[5mC]*e[5mC]; antisense) [ISIS 149002],22%
15,TCACTCTCCCTTCTTGGATA (eT*e[5mC]*eA*e[5mC]*eT*d[5mC]*dT*d[5mC]*d[5mC]*d[5mC]*dT*dT*d[5mC]*dT*dT*eG*eG*eA*eT*eA; antisense) [ISIS 148984],60%
16,TCATGAGAGTGGTGGACTCC (eT*e[5mC]*eA*eT*eG*dA*dG*dA*dG*dT*dG*dG*dT*dG*dG*eA*e[5mC]*eT*e[5mC]*e[5mC]; antisense) [ISIS 149005],27%
